Data set [1] is described as follows: in vivo. The settings on record: mouse, oral, Swiss mice, 14 days observation. As to the method:
The acute toxicity was determined by administering by oral route the substances under exam to Swiss mice, average weight 20±2 g. The observation period was 14 days. 10 Animals were used for each assayed dose.

The test system of data set [2] is carbachole-induced salivation. As to the kind of experiment: Carbachole salivation in the rat. The class given is in vivo, rat (male Sprague-Dawley). The settings on record: 62.5 mg/kg p.o., one hour before carbachole 1 mg/kg i.p. The method, then:
CARBACHOLE SALIVATION IN THE RAT
The method cited by R. Turner: "Parasympatholytic Agents" in R. Turner "Screening Methods in Pharmacology" pag. […] Academic Press. […] Male Sprague-Dawley rats, mean weight 150±5 g, fasting since 24 hours, were used.
The salivation was induced by the intraperitoneal administration of 1 mg/kg of carbachole. The products under exam were administered orally one hour before the cholinergic stimulus.

In data set [3] the test system is gastric acid secretion. As to the kind of experiment: Gastric acid secretion in the pylorus ligated rat (antisecretory activity). The class given is in vivo, rat (male Sprague-Dawley). The following applies: 4 hours. As to the method:
GASTRIC ACID SECRETION IN THE PYLORUS LIGATED RAT
Male Sprague-Dawley rats weighing 150±5 g fasting since 48 hours were used. Pylorus ligation was performed for 4 hours. The products under examination were administered by the oral route immediately after the ligation.

The term LD50 denotes the dose expected to kill half of the subjects tested. Low values mean a more toxic substance, high ones a less toxic substance. Take `CC(C)(C)C(=O)OC[N+]1(C)CCC(C(=O)N2c3ccccc3C(=O)Nc3cccnc32)CC1` (stereo not shown) [Compound 15]: in data set [1], the LD50 at 336 h was above 500 mg/kg. The “Salivation by carbachol- protection %” value in data set [2] is on record as 10%. In addition, the “% Antisecretory activity” value in data set [3] (6.25 mg/kg p.o.) amounted to 9.6%; in data set [3] (12.5 mg/kg p.o.) it was 27.7%; in data set [3] (25 mg/kg p.o.), 41.8%.
The matching figures for `C[N+](C)(C)CC(=O)N1c2ccccc2C(=O)Nc2cccnc21` [Compound 3, 11-(2-Dimethylaminoacetyl)-5,11-dihydro-6H-pyrido-[2,3-b][1,4]-benzodiazepin-6-one iodomethylate]: below 500 mg/kg, 0%, 6.0%, 14.3% and 35.9%.
The matching figures for `C[N+]1(CCC(=O)N2c3ccccc3C(=O)Nc3cccnc32)CCCCCC1` [Compound 13]: above 500 mg/kg, 30%, 19.2%, 47.5% and 69.6%.
Take `C[N+]1(CC(=O)N2c3ccccc3C(=O)Nc3cccnc32)CCCCC1` [Compound 4, 11-[2-(Piperidin-1-yl)acetyl]-5,11-dihydro-6H-pyrido[2,3-b][1,4]benzodiazepin-6-one iodomethylate]: the LD50 at 336 h in data set [1] was above 500 mg/kg. Also, the “Salivation by carbachol- protection %” value in data set [2] came out at 70%. Besides, the “% Antisecretory activity” value is 22.7% in data set [3] (6.25 mg/kg p.o.), 48.1% in data set [3] (12.5 mg/kg p.o.) and 70.3% in data set [3] (25 mg/kg p.o.).
The matching figures for `C[N+]1(C)CC[N+](C)(CC(=O)N2c3ccccc3C(=O)Nc3cccnc32)CC1` [Compound 2, 11-[2-(4-Methylpiperazin-1-yl)acetyl]-5,11-dihydro-6H-pyrido[2,3-b][1,4]benzodiazepin-6-one N^1,4 bisiodomethylate]: above 500 mg/kg, 30%, 10.3%, 15.1% and 20.4%.

These data come from patent publication US4594190A, “Quaternary salts of dibenzo[1,4]diazepinones, pyrido-[1,4]benzodiazepinones, pyrido[1,5]benzodiazepinones with antiulcer, antisecretory, spasmolytic and antimusarinic activities” (priority 1983, dated 1986).
